Results as given in US8378097B2, “3-(1,3-benzodioxol-5-yl)-6-(4-cyclopropylpiperazin-1-yl)-pyridazine, its salts and solvates and its use as histamine H3 receptor antagonist” (High Point Pharmaceuticals, LLC, priority 2006, dated 2013).
Counter-ions that a name gives are not always drawn.

Legend:
[1] = tests with mice: intake of food; format: in vivo; settings: in tests with mice
[2] = mutagenic activity test

In the case of c1cc2c(cc1-c1ccc(N3CCN(C4CC4)CC3)nn1)OCO2 [Example 1, 3-(1,3-Benzodioxol-5-yl)-6-(4-cyclopropylpiperazin-1-yl)pyridazine dihydrochloride], the “effect on the intake of food” value [1] was “reducing effect on the intake of food” and the mutagenic activity [2] was “No mutagenic activity”.
